The test system of experiment [1] is MDA-MB-231. As to the kind of experiment: Cytotoxicity against human MDA-MB-231 cells assessed as cell viability under hypoxia conditions at 1 uM measured after 48 hrs relative to control. Format: functional.
The target of experiment [2] is Carbonic anhydrase 9 (Homo sapiens, UniProt Q16790). As to the kind of experiment: Inhibition of recombinant human CA9 preincubated for 15 mins by measured for 10 to 100 secs by phenol red dye based stopped flow CO2 hydration assay.
Experiment [3] has as its system MDA-MB-231. As to the kind of experiment: Cytotoxicity against human MDA-MB-231 cells assessed as cell viability at 10 uM measured under normoxic condition after 48 hrs relative to control. The note with it: read-out: Activity. Format: functional.
Experiment [4] concerns MDA-MB-231. As to the kind of experiment: Cytotoxicity against human MDA-MB-231 cells assessed as cell killing at 1 uM measured under normoxic condition after 48 hrs relative to control. Format: functional.
Experiment [5] relates to MDA-MB-231. As to the kind of experiment: Cytotoxicity against human MDA-MB-231 cells assessed as cell viability under hypoxia conditions at 10 uM measured after 48 hrs relative to control. Type of experiment: functional.
In experiment [6] the test system is MDA-MB-231. As to the kind of experiment: Cytotoxicity against human MDA-MB-231 cells assessed as cell viability at 1 uM measured under normoxic condition after 48 hrs relative to control. Format: functional. The note with it: read-out: Activity.
Experiment [7] has as its system MDA-MB-231. As to the kind of experiment: Cytotoxicity against human MDA-MB-231 cells assessed as cell killing under hypoxia conditions at 10 uM measured after 48 hrs relative to control. Format: functional.
For experiment [8], the system named is MDA-MB-231. Put plainly: Cytotoxicity against human MDA-MB-231 cells assessed as cell killing under hypoxia conditions at 1 uM measured after 48 hrs relative to control. Type of experiment: functional.

pKi: −log10 of the molar value.

One may read the pKi as the Ki on a negative log10 scale, so that one unit is a factor of ten. For the compound `NS(=O)(=O)c1ccc(C[Te]c2ccccc2)cc1`, the Activity in experiment [1] amounted to 16%; in experiment [4], 90%; in experiment [5], 13%. Besides, the pKi in experiment [2] is 8.62. In experiment [3], the viability at 10 µM turned out to be 5%.
Regarding `COc1ccc([Te]Cc2ccc(S(N)(=O)=O)cc2)cc1`, the pKi in experiment [2] was 8.59.
`Cc1cccc(C)c1[Te]Cc1ccc(S(N)(=O)=O)cc1`: the pKi in experiment [2] was 8.60.
On to `COc1cc([Te]Cc2ccc(S(N)(=O)=O)cc2)cc(OC)c1OC`, for which the pKi in experiment [2] was 8.62. In addition, the viability at 1 µM in experiment [6] was found to be 18%. The results for the Activity in experiment [7] and in experiment [8] were 85% and 65%, respectively. In addition, the viability at 10 µM in experiment [3] was 3%.
Consider `NS(=O)(=O)c1ccc(C[Te]c2ccc3ccccc3c2)cc1`, for which the pKi in experiment [2] was 8.54.
Turning to `Cc1ccc([Te]Cc2ccc(S(N)(=O)=O)cc2)cc1`, in experiment [2], the pKi was 8.66.
Take `Cc1ccccc1[Te]Cc1ccc(S(N)(=O)=O)cc1`: in experiment [2], the pKi is 8.59.

Source of the values: ChEMBL document CHEMBL4811284, “Tellurides bearing benzensulfonamide as carbonic anhydrase inhibitors with potent antitumor activity” (Bioorg Med Chem Lett, 2021).
